This note sets out measurements from patent US11925629B2, “Heterocyclic inhibitors of ERK1 and ERK2 and their use in the treatment of cancer” (Asana Biosciences, LLC, priority 2015, dated 2024).

Structures are written as SMILES. Read-outs that look alike come from different tables or passages of the source.

Common to all, as to type: cell-based, human
Assay [1] concerns HT-29 (colorectal carcinoma, B-RafV600E) cells. The assay can be described thus: Cell proliferation (Alamar Blue) assay, HT-29. The conditions noted are these: Homo sapiens, HT-29, HT29 cells. The essentials: (§1)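 Fluorescence read-out (ex 540 nm, em 590 nm) after 1-3 h with 1× Alamar Blue, following 72 h compound exposure at 37° C./5% CO2. Compounds tested at typically 0.0005 to 10 uM, 3-fold steps; IC50 by sigmoidal dose-response (variable slope).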
Background: Resazurin is reduced to fluorescent resorufin, in cell work by metabolically active cells.

Assay [2] relates to HCT116 (colorectal carcinoma, K Ras G13D) cells. In words: Cell proliferation (Alamar Blue) assay, HCT116. Particulars: Homo sapiens, HCT-116, HCT116 cells. In short, it runs like this:
as §1

Assay [3] has as its system phosphorylation of RSK1(S380) (the downstream target of ERK1/2). In words: Phospho-RSK1(S380) ELISA assay in HT-29 cells. Particulars: Homo sapiens, HT-29, HT29 cells, read-out: Mechanistic Cell Assay RSK1 Phos HT29 IC50. The essentials: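 IC50 values derive from a variable-slope sigmoidal fit of sandwich-ELISA signal (450 nm) for RSK1 Ser380 phosphorylation. The cells were B-RafV600E HT-29 colorectal line, exposed to serially diluted compound for 2 h after overnight seeding, then lysed at 4° C.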
A general note: ELISA stands for enzyme-linked immunosorbent assay.

By IC50 is commonly meant the concentration that inhibits the measured activity by half. As to `Cc1cnc(Nc2ccc(C3CCNCC3)cc2)nc1-n1ccc(C(=O)NC(CO)c2cccc(Cl)c2)c1` (stereo not drawn) [Example 215, N-(1-(3-chlorophenyl)-2-hydroxyethyl)-1-(5-methyl-2-((4-(piperidin-4-yl)phenyl)amino)pyrimidin-4-yl)-1H-pyrrole-3-carboxamide], the IC50 in assay [1] is 250 to 500 nM; in assay [2], more than 2500 nM; in assay [3] (phospho-RSK1(S380)) it was 500 to 2500 nM.
Taken in the same sequence, the figures for `Cc1cccc(C(CO)NC(=O)c2ccn(-c3nc(N[C@H]4CCOC4)ncc3C)c2)c1` (stereo partly drawn) [Example 187, N-(2-hydroxy-1-(m-tolyl)ethyl)-1-(5-methyl-2-(((S)-tetrahydrofuran-3-yl)amino)pyrimidin-4-yl)-1H-pyrrole-3-carboxamide] were 250 to 500 nM, 500 to 2500 nM and 250 to 500 nM.
With `Cc1cnc(Nc2ccc3c(c2)OCCO3)nc1-n1ccc(C(=O)NC(CO)c2cccc(Cl)c2)c1` (stereo not drawn) [Example 139, N-(1-(3-chloro-phenyl)-2-hydroxy-ethyl)-1-(2-((2,3-dihydro-benzo[b][1,4]dioxin-6-yl)amino)-5-methyl-pyrimidin-4-yl)-1H-pyrrole-3-carboxamide], the IC50 is 250 to 500 nM in assay [1], 100 to 250 nM in assay [2] and not above 100 nM in assay [3] (phospho-RSK1(S380)).
With `Cc1cnc(NC2CCOCC2)nc1-n1cnc(C(=O)NCc2nc(Cl)sc2C)c1` [Example 328, N-((2-chloro-5-methylthiazol-4-yl)methyl)-1-(5-methyl-2-((tetrahydro-2H-pyran-4-yl)amino)pyrimidin-4-yl)-1H-imidazole-4-carboxamide], the figures for the IC50 in assay [1], in assay [2] and in assay [3] were 250 to 500 nM, more than 2500 nM and 250 to 500 nM, respectively.
Take `Cc1cnc(NC2CCOCC2)nc1-n1cnc(C(=O)NCc2sccc2CO)c1` [Example 284, N-((3-(hydroxymethyl)thiophen-2-yl)methyl)-1-(5-methyl-2-((tetrahydro-2H-pyran-4-yl)amino)pyrimidin-4-yl)-1H-imidazole-4-carboxamide]: the IC50 fell in the range of 250 to 500 nM in assay [1], 500 to 2500 nM in assay [2] and 500 to 2500 nM in assay [3] (phospho-RSK1(S380)).
Turning to `Cc1cnc(NC2CCOC2)nc1-n1ccc(C(=O)NC(CO)c2cccc(Cl)c2)c1` (stereo not drawn) [Example 123, N-(1-(3-chlorophenyl)-2-hydroxy-ethyl)-1-(5-methyl-2-((tetrahydro-furan-3-yl)amino)pyrimidin-4-yl)-1H-pyrrole-3-carboxamide], the half-inhibitory concentration (IC50) lay within 250 to 500 nM in assay [1], 500 to 2500 nM in assay [2] and 100 to 250 nM in assay [3] (phospho-RSK1(S380)).
Taken in the same sequence, the figures for `Cc1cnc(NC2CC2)nc1-n1ccc(C(=O)NC(CO)c2cccc(Cl)c2)c1` (stereo not drawn) [Example 115, N-(1-(3-chloro-phenyl)-2-hydroxy-ethyl)-1-(2-(cyclopropyl-amino)-5-methyl-pyrimidin-4-yl)-1H-pyrrole-3-carboxamide] were more than 2500 nM, more than 2500 nM and 250 to 500 nM.
Taken in the same sequence, the figures for `O=C(N[C@H](CO)c1cccc(Cl)c1)c1cn(-c2ccnc(NC3CCOC3)c2)cn1` (stereo partly drawn) [Example 170, N-((S)-1-(3-chlorophenyl)-2-hydroxyethyl)-1-(2-((tetrahydrofuran-3-yl)amino)pyridin-4-yl)-1H-imidazole-4-carboxamide] were 500 to 2500 nM, more than 2500 nM and more than 2500 nM.
Taken in the same sequence, the figures for `Cc1cnc(Nc2ccc3c(c2)OCO3)nc1-n1ccc(C(=O)NC(CO)c2ccccc2)c1` (stereo not drawn) [Example 47, 1-(2-(benzo[d][1,3]dioxol-5-ylamino)-5-methyl-pyrimidin-4-yl)-N-(2-hydroxy-1-phenylethyl)-1H-pyrrole-3-carboxamide] were 100 to 250 nM, 250 to 500 nM and 250 to 500 nM.
As for `Cc1cn(-c2nc(Nc3ccc(F)cc3)ncc2C)cc1C(=O)NC(CO)c1cccc(Cl)c1` (stereo not drawn) [Example 107, N-(1-(3-chlorophenyl)-2-hydroxy-ethyl)-1-(2-((4-fluoro-phenyl)amino)-5-methyl-pyrimidin-4-yl)-4-methyl-1H-pyrrole-3-carboxamide], the IC50 in assay [1], in assay [2] and in assay [3] (phospho-RSK1(S380)) was 500 to 2500 nM in each case.
For `Cc1cnc(N[C@H]2CCOC2)nc1-n1cnc(C(=O)N[C@H](CO)c2cccc(Cl)c2)c1` [Compound 192, N—((S)-1-(3-Chlorophenyl)-2-hydroxyethyl)-1-(5-methyl-2-(((S)-tetrahydrofuran-3-yl)amino)pyrimidin-4-yl)-1H-imidazole-4-carboxamide], the IC50 in assay [1] was 250 to 500 nM; in assay [2], more than 2500 nM; in assay [3] (phospho-RSK1(S380)), 250 to 500 nM.
Turning to `Cc1cnc(Nc2ccc3occc3c2)nc1-n1ccc(C(=O)NC(CO)c2ccccc2)c1` (stereo not drawn) [Example 65, 1-(2-(benzo-furan-5-ylamino)-5-methyl-pyrimidin-4-yl)-N-(2-hydroxy-1-phenylethyl)-1H-pyrrole-3-carboxamide], the 50% inhibitory concentration (IC50) in assay [1] was 100 to 250 nM; in assay [2], 100 to 250 nM; in assay [3] (phospho-RSK1(S380)), not above 100 nM.
For the compound `Cc1cnc(Nc2ccc3c(c2)OCO3)nc1-n1ccc(C(=O)N[C@H](CO)Cc2ccccc2)c1` [Example 59, (S)-1-(2-(benzo[d][1,3]dioxol-5-ylamino)-5-methyl-pyrimidin-4-yl)-N-(1-hydroxy-3-phenyl-propan-2-yl)-1H-pyrrole-3-carboxamide], the half-maximal inhibitory concentration (IC50) in assay [1], in assay [2] and in assay [3] (phospho-RSK1(S380)) was 250 to 500 nM in each case.
Turning to `CC[C@H](CO)Nc1cc(-n2cnc(C(=O)NC(CO)c3cccc(Cl)c3)c2)c(Cl)cn1` (stereo partly drawn) [Example 168, 1-(5-chloro-2-(((R)-1-hydroxybutan-2-yl)amino)pyridin-4-yl)-N-(1-(3-chlorophenyl)-2-hydroxyethyl)-1H-imidazole-4-carboxamide], the 50% inhibitory concentration (IC50) in assay [1] was more than 2500 nM; in assay [2] it was more than 2500 nM; in assay [3] (phospho-RSK1(S380)) it was 500 to 2500 nM.
In the case of `Cc1cn(-c2ccnc(Nc3ccccc3)c2)cc1C(=O)N[C@H](CO)c1cccc(Cl)c1` [Example 183, (S)-N-(1-(3-chlorophenyl)-2-hydroxyethyl)-4-methyl-1-(2-(phenylamino)pyridin-4-yl)-1H-pyrrole-3-carboxamide], the IC50 in assay [1] is more than 2500 nM; in assay [2] it was more than 2500 nM; in assay [3] (phospho-RSK1(S380)) it was 500 to 2500 nM.
As to `Cc1cnc(NC2CCOCC2)nc1-n1cnc(C(=O)NCc2cccc(Cl)c2CO)c1` [Cmpd 93, N-(3-chloro-2-(hydroxy-methyl)benzyl)-1-(5-methyl-2-((tetrahydro-2H-pyran-4-yl)amino)-pyrimidin-4-yl)-1H-imidazole-4-carboxamide], the IC50 in assay [1], in assay [2] and in assay [3] (phospho-RSK1(S380)) was not above 100 nM in each case.
Consider `CC[C@@H](CO)Nc1cc(-n2ccc(C(=O)NC(CO)c3ccccc3)c2)c(C)cn1` (stereo partly drawn) [Example 100, N-(2-hydroxy-1-phenyl-ethyl)-1-(2-(((S)-1-hydroxy-butan-2-yl)amino)-5-methyl-pyridin-4-yl)-1H-pyrrole-3-carboxamide], for which the IC50 is more than 2500 nM in assay [1], more than 2500 nM in assay [2] and 250 to 500 nM in assay [3] (phospho-RSK1(S380)).
For `Cc1cnc(Nc2ccc(F)cc2Cl)nc1-n1cnc(C(=O)NC(CO)c2cccc(Cl)c2)c1` (stereo not drawn) [Example 166, 1-(2-((2-chloro-4-fluorophenyl)amino)-5-methyl-pyrimidin-4-yl)-N-(1-(3-chlorophenyl)-2-hydroxy-ethyl)-1H-imidazole-4-carboxamide], the IC50 in assay [1] is 500 to 2500 nM; in assay [2], more than 2500 nM; in assay [3] (phospho-RSK1(S380)), 250 to 500 nM.
